According to PubChem BioAssay (NCI):
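Method: 48-hour compound exposure of cells in 96-well plates, five concentrations, linear interpolation of endpoints. Abbreviation: GI50, concentration required for 50% inhibition of growth. Definition used: TGI = concentration required for complete inhibition of growth.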

How the values were obtained:
Test in all cases: inhibition of tumour cell growth, NCI panel, 48 h
[1] = system: EKVX NSCLC
[2] = system: K-562 leukemia
[3] = system: SK-OV-3 ovarian
[4] = system: RXF 393 renal
[5] = system: OVCAR-3 ovarian
[6] = system: SK-MEL-2 melanoma
[7] = system: OVCAR-8 ovarian
[8] = system: MCF7 breast
[9] = system: SK-MEL-28 melanoma
[10] = system: SR leukemia
[11] = system: SK-MEL-5 melanoma
[12] = system: MALME-3M melanoma
[13] = system: MDA-MB-435
[14] = system: U251 CNS
[15] = system: SNB-19 CNS
[16] = system: NCI-H522 lung
[17] = system: BT-549 breast
[18] = system: SNB-75 CNS
[19] = system: NCI-H23 lung
[20] = system: SF-539 CNS
[21] = system: TK-10 renal
[22] = system: NCI/ADR-RES ovarian
[23] = system: HOP-92 NSCLC
[24] = system: IGROV1 ovarian
[25] = system: PC-3 prostate
[26] = system: LOX IMVI melanoma
[27] = system: HCC-2998 colon
[28] = system: SN12C renal
[29] = system: HOP-62 NSCLC
[30] = system: UACC-62 melanoma
[31] = system: NCI-H226 lung
[32] = system: 786-0 renal
[33] = system: OVCAR-5 ovarian
[34] = system: UACC-257 melanoma
[35] = system: NCI-H460 lung
[36] = system: M14 melanoma
[37] = system: DU-145 prostate
[38] = system: HT29 colon
[39] = system: HCT-15 colon
[40] = system: SF-268 CNS
[41] = system: A498 renal
[42] = system: HCT-116 colon
[43] = system: UO-31 renal
[44] = system: HS 578T breast
[45] = system: HL-60(TB) leukemia
[46] = system: OVCAR-4 ovarian
[47] = system: A549 NSCLC
[48] = system: KM12 colon
[49] = system: CAKI-1 renal
[50] = system: SF-295 CNS
[51] = system: MDA-MB-231 breast
[52] = system: ACHN renal
[53] = system: SW-620 colon
[54] = system: COLO 205 colon
[55] = system: RPMI-8226 leukemia
[56] = system: MOLT-4 leukemia
[57] = system: T-47D breast
[58] = system: CCRF-CEM leukemia

## COc1ccc(NC2=C(Cl)C(=O)C(C)=C(C)C2=O)cc1
[1]
  GI50: 1790 nM
  TGI: 3.43 µM
[2]
  GI50: 2580 nM
  TGI: 9.59 µM
[3]
  GI50: 10.8 µM
  TGI: 22.7 µM
[4]
  GI50: 9.13 µM
  TGI: 21.4 µM
[5]
  GI50: 2120 nM
  TGI: 4.53 µM
[6]
  GI50: 11 µM
  TGI: 24.1 µM
[7]
  GI50: 1840 nM
  TGI: 3.84 µM
[8]
  GI50: 2350 nM
  TGI: 6.05 µM
[9]
  GI50: 14.9 µM
  TGI: 28.8 µM
[10]
  GI50: 2370 nM
  TGI: 8.06 µM
[11]
  GI50: 6.45 µM
  TGI: 19.1 µM
[12]
  GI50: 14 µM
  TGI: 28.2 µM
[13]
  GI50: 2740 nM
  TGI: 7.13 µM
[14]
  GI50: 7.5 µM
  TGI: 21 µM
[15]
  GI50: 10.3 µM
  TGI: 22.1 µM
[16]
  GI50: 13.3 µM
  TGI: 29.5 µM
[17]
  GI50: 13.3 µM
  TGI: 26.6 µM
[18]
  GI50: 4490 nM
  TGI: 19.1 µM
[19]
  GI50: 14.8 µM
  TGI: 55 µM
[20]
  GI50: 15.5 µM
  TGI: 29.4 µM
[21]
  GI50: 28.6 µM
  TGI: 52.1 µM
[22]
  GI50: 2890 nM
  TGI: 9.87 µM
[23]
  GI50: 1400 nM
  TGI: 2840 nM
[24]
  GI50: 1780 nM
  TGI: 3.35 µM
[25]
  GI50: 4510 nM
  TGI: 20.6 µM
[26]
  GI50: 1790 nM
  TGI: 3.59 µM
[27]
  GI50: 16.8 µM
  TGI: 31.7 µM
[28]
  GI50: 12.7 µM
  TGI: 26.3 µM
[29]
  GI50: 12.2 µM
  TGI: 25.4 µM
[30]
  GI50: 10.6 µM
  TGI: 22.7 µM
[31]
  GI50: 12.3 µM
  TGI: 27.6 µM
[32]
  GI50: 18.7 µM
  TGI: 34 µM
[33]
  GI50: 16.8 µM
  TGI: 35.7 µM
[34]
  GI50: 1860 nM
  TGI: 3.96 µM
[35]
  GI50: 25.5 µM
  TGI: > 100 µM
[36]
  GI50: 12 µM
  TGI: 26.6 µM
[37]
  GI50: 25.2 µM
  TGI: 69.8 µM
[38]
  GI50: 23.5 µM
  TGI: 54.1 µM
[39]
  GI50: 13.7 µM
  TGI: 27.9 µM
[40]
  GI50: 11.4 µM
  TGI: 52.2 µM
[41]
  GI50: 18 µM
  TGI: 47.2 µM
[42]
  GI50: 2000 nM
  TGI: 4.37 µM
[43]
  GI50: 11.1 µM
  TGI: 23.1 µM
[44]
  GI50: 17.4 µM
  TGI: 72.4 µM
[45]
  GI50: 2180 nM
  TGI: 5540 nM
[46]
  GI50: 1710 nM
  TGI: 3.1 µM
[47]
  GI50: 21.7 µM
  TGI: > 100 µM
[48]
  GI50: 3750 nM
  TGI: 44.3 µM
[49]
  GI50: 10.4 µM
  TGI: 22.2 µM
[50]
  GI50: 10.3 µM
  TGI: 23.7 µM
[51]
  GI50: 1990 nM
  TGI: 4490 nM
[52]
  GI50: 3940 nM
  TGI: 13.6 µM
[53]
  GI50: 3920 nM
  TGI: 18.9 µM
[54]
  GI50: 19.2 µM
  TGI: 38.8 µM
[55]
  GI50: 2230 nM
  TGI: 5.69 µM

## O=C(N/N=C/c1cccs1)c1[nH]c2ccc(Br)cc2c1-c1ccccc1
[1]
  GI50: 2200 nM
  TGI: > 100 µM
[2]
  GI50: 36.7 nM
  TGI: > 100 µM
[3]
  GI50: 0.345 µM
  TGI: > 100 µM
[5]
  GI50: 63.7 nM
  TGI: > 72.9 µM
[6]
  GI50: 0.15 µM
  TGI: > 100 µM
[7]
  GI50: 44.2 nM
[8]
  GI50: 37.4 nM
  TGI: > 35.5 µM
[9]
  GI50: 0.612 µM
  TGI: > 100 µM
[10]
  GI50: 41.2 nM
  TGI: > 100 µM
[56]
  GI50: 152 nM
  TGI: > 100 µM
[11]
  GI50: 0.0638 µM
  TGI: 0.23 µM
[12]
  GI50: 0.179 µM
  TGI: > 100 µM
[14]
  GI50: 0.0746 µM
  TGI: > 100 µM
[15]
  GI50: 0.124 µM
  TGI: > 100 µM
[16]
  GI50: 0.0242 µM
  TGI: 0.0809 µM
[17]
  GI50: 0.0976 µM
  TGI: 0.474 µM
[18]
  GI50: 226 nM
  TGI: 8.49 µM
[19]
  GI50: 0.0883 µM
  TGI: > 100 µM
[20]
  GI50: 0.0283 µM
  TGI: 0.115 µM
[21]
  GI50: 5.74 µM
  TGI: > 100 µM
[22]
  GI50: 39.2 nM
[23]
  GI50: 1120 nM
  TGI: > 100000 nM
[24]
  GI50: 81.8 nM
  TGI: > 100 µM
[25]
  GI50: 224 nM
  TGI: > 100 µM
[26]
  GI50: 34.7 nM
  TGI: 22.8 µM
[57]
  GI50: 8.84 µM
  TGI: > 100 µM
[27]
  GI50: 0.142 µM
  TGI: 43.3 µM
[28]
  GI50: 0.0728 µM
  TGI: > 51.2 µM
[29]
  GI50: 0.15 µM
  TGI: > 93.4 µM
[30]
  GI50: 0.0516 µM
  TGI: > 100 µM
[58]
  GI50: 61.9 nM
  TGI: > 100 µM
[31]
  GI50: 0.24 µM
  TGI: > 100 µM
[32]
  GI50: 0.186 µM
  TGI: > 100 µM
[33]
  GI50: 0.109 µM
  TGI: > 100 µM
[34]
  GI50: 297 nM
  TGI: > 100 µM
[35]
  GI50: 0.0657 µM
  TGI: 3.22 µM
[36]
  GI50: 0.0699 µM
  TGI: > 100 µM
[37]
  GI50: 0.063 µM
  TGI: > 100 µM
[38]
  GI50: 0.0368 µM
  TGI: 1.57 µM
[39]
  GI50: 0.0418 µM
  TGI: > 57.2 µM
[40]
  GI50: 0.404 µM
  TGI: > 100 µM
[41]
  GI50: > 83.8 µM
  TGI: > 100 µM
[42]
  GI50: 34.5 nM
  TGI: > 100 µM
[43]
  GI50: 0.12 µM
  TGI: > 100 µM
[44]
  GI50: 0.0657 µM
  TGI: > 100 µM
[45]
  GI50: 86.8 nM
  TGI: 358 nM
[46]
  GI50: 340 nM
  TGI: > 100 µM
[47]
  GI50: 0.125 µM
  TGI: > 100 µM
[48]
  GI50: 152 nM
  TGI: > 100 µM
[49]
  GI50: 0.153 µM
  TGI: > 100 µM
[50]
  GI50: 0.0392 µM
  TGI: 39.6 µM
[51]
  GI50: 128 nM
  TGI: 687 nM
[52]
  GI50: 103 nM
  TGI: > 82.9 µM
[53]
  GI50: 40.5 nM
  TGI: > 100 µM
[54]
  GI50: 0.152 µM
  TGI: 0.32 µM
[55]
  GI50: 54.2 nM
  TGI: > 76.5 µM
